This assay relates to HLA-A*24. Nature of the assay: MHC binding assay, UV-ligand exchange with β2m ELISA, HLA-A*24. The note with it: binding to HLA-A*24 ranged by peptide exchange yield. Details: species or system human. The text has this: Candidate peptides for T cell based therapies according to the present invention were further tested for their MHC binding capacity (affinity). The individual peptide-MHC complexes were produced by UV-ligand exchange, where a UV-sensitive peptide is cleaved upon UV-irradiation, and exchanged with the peptide of interest as analyzed. Only peptide candidates that can effectively bind and stabilize the peptide-receptive MHC molecules prevent dissociation of the MHC complexes. To determine the yield of the exchange reaction, an ELISA was performed based on the detection of the light chain (β2m) of stabilized MHC complexes. The assay was performed as generally described in Rodenko et al. (Rodenko et al., 2006).
96 well MAXISorp plates (NUNC) were coated over night with 2 ug/ml streptavidin in PBS at room temperature, washed 4× and blocked for 1 h at 37° C. in 2% BSA containing blocking buffer. Refolded HLA-A*02:01/MLA-001 monomers served as standards, covering the range of 15-500 ng/ml. Peptide-MHC monomers of the UV-exchange reaction were diluted 100 fold in blocking buffer. Samples were incubated for 1 h at 37° C., washed four times, incubated with 2 ug/ml HRP conjugated anti-β2m for 1 h at 37° C., washed again and detected with TMB solution that is stopped with […]. Absorption was measured at 450 nm. Candidate peptides that show a high exchange yield (preferably higher than 50%, most preferred higher than 75%) are generally preferred for a generation and production of antibodies or fragments thereof, and/or T cell receptors or fragments thereof, as they show sufficient avidity to the MHC molecules and prevent dissociation of the MHC complexes.

As to “280 (RYPDNLKHLYL; listed as Homo sapiens) [compound 280]”, the Peptide exchange entry is “++++ (> = 75% = ++++)”. The result for “194 (EFGSLHLEFL; listed as Homo sapiens) [compound 194]” reads “+ (<20% = +)”; that for “267 (KYMVYPQTF; listed as Homo sapiens) [compound 267]”, “++++ (> = 75% = ++++)”.

Regarding “173 (IYSWILDHF; listed as Homo sapiens) [compound 173]”, the Peptide exchange result was “++++ (> = 75% = ++++)”. As for “216 (QYSSVFKSL; listed as Homo sapiens) [compound 216]”, the Peptide exchange entry was “++++ (> = 75% = ++++)”.

For the substance “217 (FFPPTRQMGLLF; listed as Homo sapiens) [compound 217]”, the Peptide exchange result is given as “++++ (> = 75% = ++++)”. For “193 (RFHPTPLLL; listed as Homo sapiens) [compound 193]”, the Peptide exchange result is “++++ (> = 75% = ++++)”.

In the case of “166 (YYVESGKLF; listed as Homo sapiens) [compound 166]”, the Peptide exchange entry is on record as “++++ (> = 75% = ++++)”. Take “202 (VYWDSAGAAHF; listed as Homo sapiens) [compound 202]”: the Peptide exchange result is given as “++++ (> = 75% = ++++)”. “227 (IFLDYEAGTLSF; listed as Homo sapiens) [compound 227]”: the Peptide exchange entry is “++++ (> = 75% = ++++)”. In the case of “274 (AYLHSHALI; listed as Homo sapiens) [compound 274]”, the Peptide exchange result was “++++ (> = 75% = ++++)”. In the case of “192 (SYALLTYMI; listed as Homo sapiens) [compound 192]”, the Peptide exchange result is listed as “++++ (> = 75% = ++++)”. Consider “272 (QYLQDAYSF; listed as Homo sapiens) [compound 272]”, for which the Peptide exchange entry is “++++ (> = 75% = ++++)”. The result for “276 (VYGFQWRHF; listed as Homo sapiens) [compound 276]” reads “++++ (> = 75% = ++++)”; that for “179 (MYDSYWRQF; listed as Homo sapiens) [compound 179]”, “++++ (> = 75% = ++++)”; that for “172 (TYTTVPRVAF; listed as Homo sapiens) [compound 172]”, “++++ (> = 75% = ++++)”. As for “177 (VYPWLGALL; listed as Homo sapiens) [compound 177]”, the Peptide exchange entry is recorded as “++++ (> = 75% = ++++)”. With “195 (TYSVSFPMF; listed as Homo sapiens) [compound 195]”, the Peptide exchange result is listed as “++++ (> = 75% = ++++)”. Then “278 (RYISDQLFTNF; listed as Homo sapiens) [compound 278]”, with “++++ (> = 75% = ++++)”; and “210 (IYTMIYRNL; listed as Homo sapiens) [compound 210]”, with “++++ (> = 75% = ++++)”.

With “228 (KYTSWYVAL; listed as Homo sapiens) [compound 228]”, the Peptide exchange entry is on record as “++++ (> = 75% = ++++)”. In the case of “282 (KFVDSTFYL; listed as Homo sapiens) [compound 282]”, the Peptide exchange entry is “++++ (> = 75% = ++++)”. The result for “186 (IFPQFLYQF; listed as Homo sapiens) [compound 186]” reads “++++ (> = 75% = ++++)”. On to “187 (TYLRDQHFL; listed as Homo sapiens) [compound 187]”, for which the Peptide exchange result is recorded as “++++ (> = 75% = ++++)”. On to “175 (YYEVHKELF; listed as Homo sapiens) [compound 175]”, for which the Peptide exchange result is “++++ (> = 75% = ++++)”. “181 (LYLDIINLF; listed as Homo sapiens) [compound 181]”: the Peptide exchange entry is “++++ (> = 75% = ++++)”. Then “271 (LYHDIFSRL; listed as Homo sapiens) [compound 271]”, with “++++ (> = 75% = ++++)”; and “161 (IYLVSIPEL; listed as Homo sapiens) [compound 161]”, with “++++ (> = 75% = ++++)”. Then “211 (YYLEVGKTLI; listed as Homo sapiens) [compound 211]”, with “++++ (> = 75% = ++++)”.

For the origin of these results see patent publication US10098938B2, “Peptides and combination of peptides for use in immunotherapy against various cancers” (immatics biotechnologies GmbH, priority 2015, dated 2018).
